How the values were obtained:
Homo sapiens [1] = species: Homo sapiens; assay: Binding affinity to human telomeric i-Motif DNA assessed as change in melting temperature at pH 6.8 by FRET assay
Homo sapiens [2] = species: Homo sapiens; assay: Binding affinity to human telomeric G-quadruplex DNA assessed as change in melting temperature by FRET assay
[3] = Binding affinity to d(C5T3)3C5 i-Motif DNA (unknown origin) by UV titration method
[4] = Binding affinity to human telomeric G-quadruplex DNA
[5] = Binding affinity to human telomeric duplex DNA
Homo sapiens [6] = species: Homo sapiens; assay: Increase in thermal stability of human telomeric i-Motif DNA assessed as change in melting temperature at pH 5.5
Homo sapiens [7] = species: Homo sapiens; assay: Binding to human telomeric i-Motif DNA by fluorescence titration method
[8] = Binding affinity to bcl-2 i-Motif DNA (unknown origin) by fluorescence based assay
[9] = Reduction in bcl-2 expression in human GRANTA-519 cells xenografted in mouse; type: functional; settings: dose or concentration not given here
[10] = Antitumor activity against human GRANTA-519 cells xenografted in mouse assessed as inhibition of tumor growth co-administered with etoposide; type: functional

Row | Kd [4] | Kd [5] | ΔTm (Homo sapiens [6]) | Kd (Homo sapiens [7]) | Structure (SMILES) | other results
1 |  |  |  |  | c1cc2nc3ccc4cc3cc2cc1CNCCNCCNCc1ccc2nc3ccc(cc3cc2c1)CNCCNCCNC4 | ΔTm (Homo sapiens [1]): 33 °C; ΔTm (Homo sapiens [2]): 15 °C
2 |  |  |  |  | CN(C)c1ccc(C(=C2C=CC(=[N+](C)C)C=C2)c2ccc(N(C)C)cc2)cc1 [GENTIAN VIOLET] | Kd [3]: 830 nM
3 | 1600 nM | 6700 nM | 7 °C | 4000 nM | O=C(Nc1ccc(OCCN2CCCCC2)cc1)c1ccc2ccc3ccc(C(=O)Nc4ccc(OCCN5CCCCC5)cc4)nc3c2n1 | 
4 |  |  |  |  | COc1ccc2c(c1)CN([C@@H](C)[C@H]1CC[C@H]3[C@@H]4CC[C@H]5C[C@@H](O)CC[C@]5(C)[C@H]4CC[C@]13C)CO2 | Kd [8]: 1010 nM; inhibition [9]: 20%; TGI [10]: 65%
5 | 1600 nM | 6700 nM | 7 °C | 4000 nM | O=C(Nc1ccc(OCCN2CCCC2)cc1)c1ccc2ccc3ccc(C(=O)Nc4ccc(OCCN5CCCC5)cc4)nc3c2n1 | 
6 |  |  |  |  | CC(C)CC[C@H](C)[C@@H]1CC[C@H]2[C@@H]3CC[C@H]4C[C@@H](NC(=O)C[N+]5(C)CCCCC5)CC[C@]4(C)[C@H]3CC[C@@]21C | Kd [8]: 490 nM
7 | 1600 nM | 6700 nM | 7 °C | 4000 nM | CN(C)CCOc1ccc(NC(=O)c2ccc3ccc4ccc(C(=O)Nc5ccc(OCCN(C)C)cc5)nc4c3n2)cc1 | 
